In patent US20070128217A1 (priority 2003, published 2007):

Columns and labels:
[1] = system: rabbit serum obtained by immunizing a rabbit with the SARS-CoV strain Frankfurt 1; type: binding; design: Binding of a rabbit serum to linear peptides / Binding of a rabbit serum to looped peptides / Rabbit serum linear peptides / Rabbit serum looped peptides / Binding of a rabbit serum to linear peptides of protein N of SARS-CoV Urbani (Rabbit serum linear peptides) / Binding of a rabbit serum to looped/cyclic peptides of protein N of SARS-CoV Urbani (Rabbit serum looped peptides): unit not given here
[2] = system: control sera (pooled serum of ten healthy LUMC hospital workers; commercial negative donor pooled serum from the Dutch bloodbank); type: binding, human
[3] = system: antibodies in sera from SARS patients (sera 1a, 1b, 2, 6, 37, 62, London, SARS-yellow, SARS-green); type: binding, human

AILTALRLCAYCCNI
Binding of a rabbit serum to linear peptides [1]: 0.2 | Binding of a rabbit serum to looped peptides [1]: 0.6 | Binding of Control Serum Blood-Bank to Looped peptides [2]: 0.6 | Binding of Control serum Blood-bank to linear peptides [2]: 0.6 | Binding of Control serum LUMC to linear peptides [2]: 0.6 | Binding of Control serum LUMC to looped peptides [2]: 0.8 | Binding of serum 1a to linear peptides of protein E of SARS-CoV Urbani [3]: 0.6 | Binding of serum 1a to looped/cyclic peptides of protein E of SARS-CoV Urbani [3]: 0.8 | Binding of serum 1b to linear peptides of protein E of SARS-CoV Urbani [3]: 0.4 | Binding of serum 1b to looped/cyclic peptides of protein E of SARS-CoV Urbani [3]: 0.6 | Binding of serum 2 to linear peptides of protein E of SARS-CoV Urbani [3]: 0.5 | Binding of serum 2 to looped/cyclic peptides of protein E of SARS-CoV Urbani [3]: 0.7 | Binding of serum 6 to linear peptides of protein E of SARS-CoV Urbani [3]: 0.3 | Binding of serum 6 to looped/cyclic peptides of protein E of SARS-CoV Urbani [3]: 0.5 | Binding of serum 37 to linear peptides of protein E of SARS-CoV Urbani [3]: 0.4 | Binding of serum 37 to looped/cyclic peptides of protein E of SARS-CoV Urbani [3]: 0.7 | Binding of serum 62 to linear peptides of protein E of SARS-CoV Urbani [3]: 0.4 | Binding of serum 62 to looped/cyclic peptides of protein E of SARS-CoV Urbani [3]: 0.8 | Binding of serum London to linear peptides of protein E of SARS-CoV Urbani [3]: 0.5 | Binding of serum London to looped/cyclic peptides of protein E of SARS-CoV Urbani [3]: 0.4 | Binding of serum SARS-green to linear peptides of protein E of SARS-CoV Urbani [3]: 0.5 | Binding of serum SARS-green to looped/cyclic peptides of protein E of SARS-CoV Urbani [3]: 0.5 | Binding of serum SARS-yellow to linear peptides of protein E of SARS-CoV Urbani [3]: 0.1 | Binding of serum SARS-yellow to looped/cyclic peptides of protein E of SARS-CoV Urbani [3]: 0.9

ETGTLIVNSVLLFLA
Binding of a rabbit serum to linear peptides [1]: 0.3 | Binding of a rabbit serum to looped peptides [1]: 0.0 | Binding of Control Serum Blood-Bank to Looped peptides [2]: 0.5 | Binding of Control serum Blood-bank to linear peptides [2]: 0.5 | Binding of Control serum LUMC to linear peptides [2]: 0.8 | Binding of Control serum LUMC to looped peptides [2]: 0.5 | Binding of serum 1a to linear peptides of protein E of SARS-CoV Urbani [3]: 0.8 | Binding of serum 1a to looped/cyclic peptides of protein E of SARS-CoV Urbani [3]: 0.5 | Binding of serum 1b to linear peptides of protein E of SARS-CoV Urbani [3]: 0.7 | Binding of serum 1b to looped/cyclic peptides of protein E of SARS-CoV Urbani [3]: 0.4 | Binding of serum 2 to linear peptides of protein E of SARS-CoV Urbani [3]: 0.8 | Binding of serum 2 to looped/cyclic peptides of protein E of SARS-CoV Urbani [3]: 0.5 | Binding of serum 6 to linear peptides of protein E of SARS-CoV Urbani [3]: 0.5 | Binding of serum 6 to looped/cyclic peptides of protein E of SARS-CoV Urbani [3]: 0.4 | Binding of serum 37 to linear peptides of protein E of SARS-CoV Urbani [3]: 0.4 | Binding of serum 37 to looped/cyclic peptides of protein E of SARS-CoV Urbani [3]: 0.5 | Binding of serum 62 to linear peptides of protein E of SARS-CoV Urbani [3]: 0.4 | Binding of serum 62 to looped/cyclic peptides of protein E of SARS-CoV Urbani [3]: 0.7 | Binding of serum London to linear peptides of protein E of SARS-CoV Urbani [3]: 0.8 | Binding of serum London to looped/cyclic peptides of protein E of SARS-CoV Urbani [3]: 0.4 | Binding of serum SARS-green to linear peptides of protein E of SARS-CoV Urbani [3]: 0.6 | Binding of serum SARS-green to looped/cyclic peptides of protein E of SARS-CoV Urbani [3]: 0.3 | Binding of serum SARS-yellow to linear peptides of protein E of SARS-CoV Urbani [3]: 0.4 | Binding of serum SARS-yellow to looped/cyclic peptides of protein E of SARS-CoV Urbani [3]: 0.5
